The results in this text go back to patent US11773086B2, “Fungal modulators” (TRUSTEES OF BOSTON UNIVERSITY, priority 2020, dated 2023).

In one assay the test system is C. auris. The assay is described as follows: Intracellular fluconazole and azoffluxin detection by LC-MS. The format is cell-based, Candida auris. Particulars: combination treatment vs high fluconazole alone, 1 hour. The text has this: FIGS. 3A-3B, and 4A-4B illustrate azoffluxin increases fluconazole (FLC) bioavailability by inhibiting Cdr1-mediated efflux in C. auris, as described above. FIG. 3A depicts the relative abundance of specific sterols determined in C. auris after an 18-hour treatment with the respective compounds (⋅ indicates combo treatment concentrations) using LC-MS. Values are plotted relative to the internal standard of cholesterol and error bars indicate standard deviation between technical triplicates. Significance was determined by an unpaired student t-test of each condition to untreated, (*) indicates a p-value<0.05 and (**) indicates a p-value<0.01. FIG. 3B depicts the intracellular concentrations of FLC and azoffluxin measured after treatment for 1 hour (conditions as in FIG. 3A) Error bars indicate standard deviation between technical triplicates. Significance was determined by an unpaired student t-test, (**) indicates a p-value<0.01. FIG. 4A depicts the quantified relative expression of a panel of putative efflux pumps in C. auris Ci6684. Expression of CDR1 (B9J08_000164), MDR1 (B9J08_003981), CDR4-1 (B9J08_000479), CDR4-2 (B9J08_002451), SNQ2-1 (B9J08_001125), and SNQ2-2 (B9J08_004452) was measured by RT-qPCR. […] FIG. 4B depicts expression of CDR1 (B9J08_000164) and CDR4-1 (B9J08_000479) measured by quantitative real-time PCR (RT-qPCR). […]

The test system of the next assay is C. albicans. The assay can be described thus: Checkerboard with fluconazole, clinical isolates CaCi-2 and CaCi-17. It counts as cell-based, Candida albicans. The method, then:
FIG. 9A depicts checkerboard assays as described in FIG. 2B and performed with isolates of C. albicans. CaCi-2 and CaCi-17 represent early and late clinical isolates in which FLC resistance evolved over time. Growth was measured at 24 hours using OD600 and normalized to a no drug control well (see color bar). FIG. 9B depicts dose response assays conducted in YPD medium with a C. albicans parental strain, and strains with gain of function mutations in TAC1 as indicated. FLC was tittered in a two-fold dilution on the x-axis in the absence and presence of 50 μM azoffluxin. Growth was measured at 24 hours using OD600 and normalized to a no drug control well (see color bar). […] FIGS. 9D and 9E depict the intracellular concentrations of FLC and azoffluxin measured after treatment (combo treatment at 6.25 μM azoffluxin and 8 μg/mL FLC) for 1 hour by LC-MS. […] Significance was determined by an unpaired student t-test of each combination to the respective compound alone treatment, (*) indicates a p-value<0.05 and (**) indicates a p-value<0.01.
Compound potency was assessed alone by dose response assays or in combination with another compound by dose-response matrixes in 96-well plates, or 384-well, flat-bottom, microtiter plates (Corning) as previously described. […] Growth was quantified by measuring OD600 and corrected for medium background. […]

`C=C(C)C[C@@H](O)COc1cc2c(cc1C1(c3cc4c(cc3OC[C@H](O)CC(=C)C)OCO4)C(=O)Nc3cc(F)ccc31)OCO2` [CMLD012336]: in the assay with C. auris, the “increase in intracellular fluconazole” value was roughly 2.5 fold. Besides, the potentiation of fluconazole entry is listed as “No potentiation” in the assay with C. albicans (early clinical isolate CaCi-2) and “did potentiate fluconazole” in the assay on C. albicans (late clinical isolate CaCi-17).
